Patent US8816119B2, “Arylamide derivatives having antiandrogenic properties” (Medeia Therapeutics Ltd, priority 2010, dated 2014)
Substitutions are numbered along the chain they refer to.

Experiments:
Type in all cases: cell-based
T877A AR = biological target: T1, T877A AR (Homo sapiens, UniProt P10275, T878A); assay: Agonism in T877A mutant AR, AR transactivation assay in COS-1 cells, test compounds alone; conditions: 10 microM, compound alone
T1 construct: expressed in transfected cells; host or cells: COS-1
T1 sequence (P10275 1-920 T878A): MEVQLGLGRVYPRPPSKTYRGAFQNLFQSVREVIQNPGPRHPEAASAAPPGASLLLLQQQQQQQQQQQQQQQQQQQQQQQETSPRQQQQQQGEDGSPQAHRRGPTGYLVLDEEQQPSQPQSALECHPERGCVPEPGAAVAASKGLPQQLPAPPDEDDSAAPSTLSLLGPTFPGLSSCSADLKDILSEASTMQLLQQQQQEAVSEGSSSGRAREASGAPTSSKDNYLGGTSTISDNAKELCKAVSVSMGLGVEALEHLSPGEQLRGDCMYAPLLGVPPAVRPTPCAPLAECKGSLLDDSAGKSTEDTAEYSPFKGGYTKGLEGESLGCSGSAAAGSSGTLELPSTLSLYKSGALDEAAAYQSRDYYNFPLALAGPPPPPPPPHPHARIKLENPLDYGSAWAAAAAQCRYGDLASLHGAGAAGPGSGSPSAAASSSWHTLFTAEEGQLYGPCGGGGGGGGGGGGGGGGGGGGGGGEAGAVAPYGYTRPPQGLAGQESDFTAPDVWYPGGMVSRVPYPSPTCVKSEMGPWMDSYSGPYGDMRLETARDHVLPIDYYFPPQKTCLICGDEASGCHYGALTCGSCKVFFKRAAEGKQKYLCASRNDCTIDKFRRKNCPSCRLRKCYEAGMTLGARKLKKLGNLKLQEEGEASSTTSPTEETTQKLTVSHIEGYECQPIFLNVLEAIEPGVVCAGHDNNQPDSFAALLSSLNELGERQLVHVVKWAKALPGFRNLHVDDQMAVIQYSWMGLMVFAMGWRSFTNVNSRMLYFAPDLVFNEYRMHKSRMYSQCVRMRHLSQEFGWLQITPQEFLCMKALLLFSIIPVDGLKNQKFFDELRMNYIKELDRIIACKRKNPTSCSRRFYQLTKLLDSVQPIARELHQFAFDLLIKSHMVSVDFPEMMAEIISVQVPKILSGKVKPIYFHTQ
Text: The transfected cells were exposed to test compounds alone. Testosterone was used as reference agonist, and its' relative LUC activity representing AR-dependent transcription was set to 100%.

W741L AR = biological target: T2, W741L AR (Homo sapiens, UniProt P10275, W742L); assay: Agonism in W741L mutant AR, AR transactivation assay in COS-1 cells, test compounds alone; conditions: 10 microM, compound alone
T2 construct: expressed in transfected cells; host or cells: COS-1
T2 sequence (P10275 1-920 W742L): T1 sequence (P10275 1-920 T878A) with W742L, A878T
Procedure: COS-1 (American Type Culture Collection) were cultured in DMEM supplemented with 10% FBS, penicillin (6.25 U/ml) and streptomycin (6.25 μg/ml) and seeded onto 48-well plates (50 000 cells/well) one day before transfection. Transfection media containing 2.5% charcoal-stripped FBS in DMEM was changed on cells 4 h prior to transfection. Cells were transfected with 50 ng of reporter gene plasmid (pPB-286/+32-LUC; PB, probasin promoter), 5 ng of AR expression plasmid (pSG5-hAR), and 5 ng of pCMVβ (an internal, beta-galactosidase control for transfection efficiency and cell growth) using TranslT-LT1 reagent (Mirus Bio Corporation) according to the manufacturer's instructions. […] After 18 h, reporter gene activities (LUC and beta-galactosidase) were determined according to standard methods. The data are expressed as relative LUC activity (luciferase light units divided by beta-galactosidase A420nm to control for transfection efficiency) of a given compound in relation to the activity of a reference test item (=100%).
Agonism in W741L AR of compounds of the present invention was measured in AR transactivation assay in COS-1 cells as described above except that AR expression vector harboring the W741L mutation was used instead of the WT AR. The transfected cells were exposed to test compounds alone.

WT AR = biological target: T3, WT AR (Homo sapiens, UniProt P10275); assay: Antagonism in WT AR, AR transactivation reporter gene assay in COS-1 cells, competitive setting with 50 nM testosterone; conditions: 18 h
T3 construct: expressed in transfected cells; host or cells: COS-1
T3 sequence (P10275 1-920): T1 sequence (P10275 1-920 T878A) with A878T
Procedure: After 18 h, reporter gene activities (LUC and beta-galactosidase) were determined according to standard methods. The data are expressed as relative LUC activity (luciferase light units divided by beta-galactosidase A420nm to control for transfection efficiency) of a given compound in relation to the activity of a reference test item (=100%).
Antagonism in WT AR of compounds of the present invention was measured in AR transctivation assay in COS-1 cells in competitive setting using testosterone as a reference agonist as described above. […] Relative LUC activity representing AR-dependent transcription obtained by exposure to testosterone alone was set to 100%.

Structure (SMILES)	Relative LUC activity (%) in T877A AR in relation to testosterone (100%) (T877A AR)	Relative LUC activity (%) in W741L AR in relation to BIC (100%) (W741L AR)	Relative LUC activity (%) indicating residual androgen activity in relation to testosterone (100%) (WT AR; 1 microM compound)	Relative LUC activity (%) indicating residual androgen activity in relation to testosterone (100%) (WT AR; 10 microM compound)
N#Cc1ccc(NC(=O)C(O)(CS(=O)(=O)c2ccc(F)c(F)c2)c2ccc(C(F)(F)F)cc2)cc1Cl (centres unmarked) [Example 10, N-(3-chloro-4-cyanophenyl)-3-[(3,4-difluorobenzene)sulfonyl]-2-hydroxy-2-[4-(trifluoromethyl)phenyl]propanamide]	1%	3%	23%	6%
N#Cc1ccc(NC(=O)C(O)(CS(=O)(=O)c2ccc(Cl)cc2)c2ccc(Cl)cc2)cc1Cl (centres unmarked) [Example 18, N-(3-chloro-4-cyanophenyl)-3-[(4-chlorobenzene)sulfonyl]-2-(4-chlorophenyl)-2-hydroxypropanamide]	6%	27%	7%	1%
N#Cc1ccc(S(=O)(=O)CC(O)(C(=O)Nc2ccc([N+](=O)[O-])c(Cl)c2)c2ccc(C(F)(F)F)cc2)cc1F (centres unmarked) [Example 19, N-(3-chloro-4-nitrophenyl)-3-[(4-cyano,3-fluorobenzene)sulfonyl]-2-hydroxy-2-[4-(trifluoromethyl)phenyl]propanamide]	2%	9%	11%	1%
N#Cc1ccc(NC(=O)C(O)(CS(=O)(=O)c2ccc(F)cc2)c2ccc(C(F)(F)F)cc2)cc1C(F)(F)F (centres unmarked) [Example 21, N-(4-cyano-3-(trifluoromethyl)phenyl)-3-[(4-fluorobenzene)sulfonyl]-2-hydroxy-2-[4-(trifluoromethyl)phenyl]propanamide]	4%	3%	24%	1%
CCS(=O)(=O)CC(O)(C(=O)Nc1ccc(C#N)c(Cl)c1)c1ccc(OC)c(F)c1 (centres unmarked) [Example 25, N-(3-chloro-4-cyanophenyl)-2-((3-fluoro-4-methoxy)phenyl)-3-(ethanesulfonyl)-2-hydroxypropanamide]	9%	9%	22%	6%
N#Cc1ccc(NC(=O)C(O)(CS(=O)(=O)Cc2ccc(Cl)cc2)c2ccc(Cl)cc2)cc1Cl (centres unmarked) [Example 27, N-[3-chloro-4-cyanophenyl]-3-{[(4-chlorophenyl)methane]sulfonyl}-2-hydroxy-2-[4-(chloro)phenyl]propanamide]	1%	6%	14%	1%
COc1ccc(C(O)(CS(=O)(=O)Cc2ccc(F)cc2)C(=O)Nc2ccc(C#N)c(Cl)c2)cc1F (centres unmarked) [Example 32, N-(3-chloro-4-cyanophenyl)-2-(3-fluoro-4-methoxyphenyl)-3-{[(4-fluorophenyl)methane]sulfonyl}-2-hydroxypropanamide]	2%	3%	24%	2%
N#Cc1ccc(NC(=O)C(O)(CS(=O)(=O)Cc2ccc(F)cc2)c2cccc(C(F)(F)F)c2)cc1Cl (centres unmarked) [Example 40, N-(3-chloro-4-cyanophenyl)-3-{[(4-fluorophenyl)methane]sulfonyl}-2-hydroxy-2-[3-(trifluoromethyl)phenyl]propanamide]	1%	2%	22%	2%
